Assay [1] has as its system primary astrocytes. The assay is described as follows: Intracellular glycogen quantification. The assay is classed as cell-based, mouse. To be noted: 10 μM, 3 h, vs vehicle. How it is done: Primary cultures of cerebrocortical astrocytes were obtained from 1 to 2-day-old OF1 mouse pups (Charles River). Briefly, cortices were isolated and minced in small pieces under a dissecting microscope. The cells were incubated for 30 min at 37° C. in a solution containing 20 U/ml papain, 1 mM L-cysteine and 10 kU/ml DNase I. After dissociation, papain activity was stopped by the addition of fetal calf serum (FCS). Single-cell suspension was then obtained by mechanical dissociation, which consisted in cells trituration in a DMEM D7777 medium supplemented with 44 mm NaHCO3, 10 ml/L antibiotic/antimycotic solution and 10% FCS. […]
Astrocytes grown on 12-well plates were used for intracellular glycogen quantifications. […]
First, the amount of proteins in each sample was quantified to assess whether harvested astrocytes from primary cell cultures yielded enough and equivalent amounts of proteins on each replicates. Proteins were quantified using the micro BCA Protein Assay kit (Thermo Scientific), according to manufacturer's instructions. Next, intracellular glycogen concentrations were quantified using a 250 μl-aliquot of the same stimulated, thawed, and sonicated cell lysate. […] Fluorescence intensity (340 nm excitation/440 nm emission) was measured using a Safire 2 spectrophotometer. […]

Assay [2] has as its system primary astrocytes. The assay is described as follows: MTT mitochondrial activity assay. The format is cell-based. To be noted: Mus musculus, Astrocyte, 24 h treatment. Here is the method:
Primary cultures of cerebrocortical astrocytes were obtained from 1 to 2-day-old OF1 mouse pups (Charles River). Briefly, cortices were isolated and minced in small pieces under a dissecting microscope. The cells were incubated for 30 min at 37° C. in a solution containing 20 U/ml papain, 1 mM L-cysteine and 10 kU/ml DNase I. After dissociation, papain activity was stopped by the addition of fetal calf serum (FCS). Single-cell suspension was then obtained by mechanical dissociation, which consisted in cells trituration in a DMEM D7777 medium supplemented with 44 mm NaHCO3, 10 ml/L antibiotic/antimycotic solution and 10% FCS. The cells were seeded at an average density of ˜10′000 cells/cm^2 on poly-D-lysine coated 96- or 12-well culture plates, depending on their use, and grown in DMEM D7777 medium supplemented with 44 mm NaHCO3, 10 ml/L antibiotic/antimycotic solution and 10% FCS at 37° C. in a humidified atmosphere containing 5% CO2/95% air. Culture medium was renewed twice a week. Cells were stimulated and harvested between DIV14 and DIV17, when confluence and cell growth were optimal.
To monitor mitochondrial activity in astrocytes, which is linked to the metabolic process of glycolysis and production of lactate, astrocytes in 96-well plates were stimulated for 24 h (37° C. 5% CO2/95% air) with the compounds of the invention ranging from 0.2 to 200 μM.
After stimulation, 5 mg/ml thiazol blue tetrazolium bromide (MTT) in D5030 medium complemented with 5 mM D-glucose and 44 mM sodium bicarbonate (pH 7.2) was added to each well, and cells were incubated for 4 h at 37° C. (5% CO2). The medium was then removed and the amount of reduced MTT, i.e. formazan, solubilized in DMSO (50 μl/well) was determined using a spectrophotometer (absorbance of 570 nm).
The mitochondrial activity in primary astrocytes treated with Compounds (1) to (4) at concentrations ranging from 1 nM to 200 μM. After 24 h, mitochondrial activity was monitored in MTT colorimetric assay as described above (FIG. 3).
On the technique in general: Tetrazolium assays rely on reduction of a dye to a coloured formazan, in cell work by metabolically active cells.

Another assay relates to GLUT1-DS mice. The assay is described as follows: Cerebral extracellular lactate and glucose biosensors, GLUT1-DS transgenic mice. The format is in vivo, mouse. To be noted: medial prefrontal cortex, 10 mg/kg and/or 100 mg/kg oral, AUC ratio vs vehicle. From the text: Transgenic mice on 129/SvJ genetic background in which GLUT1 has been knocked-down (GLUT1-DS mice) were used (Wang et al., […], Human Molecular Genetics, 15(7)). Mating colonies were composed of wild-type female mice and GLUT1-DS male mice, or GLUT1-DS female mice and wild-type male mice. F1 pups were genotyped after ear punching at weaning using PCR to determine genotype. Mice of 2 to 3 months of age were used.
Cerebral extracellular levels of lactate and glucose were monitored in vivo in GLUT1-DS transgenic male mice and wild-type (WT) male littermates using lactate and glucose biosensors (Pinnacle Technology), according to the manufacturer's instructions. […] After surgery, mice were monitored closely and received analgesic treatment for at least 4 days. After mice had fully recovered from surgery, compounds of the invention of vehicle were administered per os as previously described and cerebral levels of extracellular lactate or glucose were dynamically recorded for 6 hours using lactate or glucose biosensors, respectively. […] Concentration of cerebral extracellular lactate or glucose was calculated from lactate or glucose probe electric signals, respectively, using post-calibration values, as described by manufacturer. […]

Here are results for one compound from patent US11925632B2, “Isoquinoline derivatives for use in treating GLUT1 deficiency syndrome” (GLIAPHARM SA, priority 2019, dated 2024).

Each structure is given as a SMILES string.

For orientation: IC50 means the midpoint of a concentration-inhibition curve. High values mean lower potency, low ones higher potency.

In the case of `COc1cc2ccnc(Nc3ccc(OC(F)(F)F)cc3)c2cc1OC` [Example 1, 6,7-dimethoxy-N-(4-(trifluoromethoxy)phenyl)isoquinolin-1-amine], the Intracellular glycogen levels result in the assay on primary astrocytes [1] is recorded as “significantly enhances the degradation of intracellular glycogen”. Also, the IC50 with primary astrocytes [2] came out at 34.4 µM. In the assay on GLUT1-DS mice, the “Extracellular glucose levels in the brain” value is recorded as “significantly increases” and the “Extracellular lactate levels in the brain” value was “significantly increases”.
